Experimental findings from publication PMC8797470, “Disruption of the pentraxin 3/CD44 interaction as an efficient therapy for triple‐negative breast cancers” (Clinical and Translational Medicine, 2022) are described below.

One assay deals with MDA-MB-231 cells. Kind of assay: Transwell migration and Matrigel invasion assays. In kind it is cell-based, human. The conditions noted are these: with PTX3 treatment, 18 h. An excerpt:
In migration assay, MDA‐MB‐231 cells seeded in 8.0 μm pore polycarbonate membrane inserts (BD Biosciences) in 24‐well plates. In Matrigel invasion assay, inserts were pre‐coated with an appropriate amount of Matrigel first, and the same number of cells seeded on the Matrigel. After cells adhered on the inserts, serum‐free DMEM medium added in the upper wells. Serum‐free medium containing the treatments of TGF‐β1, PTX3, PTX3NA, PTX3/N, PTX3/C, RI37, GI40, AD9, GR9, IgG1κ, PTX3 Ab‐10 or PTX3 Ab‐49 were then mixed into the lower wells of the 24‐well plates. After incubating for 18 h, cells outside the insert were removed by wiping. The inside the inserts were then stained by 4′,6‐diamidino‐2‐phenylindol (DAPI). Fluorescence microscope was used for counting the total number of migrated cells with 200× magnification. Different from the experimental design for the MDA‐MB‐231 cells, the migrated 4T1‐Luc2 cells in the inside of the insert were detected by luciferase activity.

Assay [1] deals with RANKL, MMP2, NANOG and TWIST2 transcription in MDA-MB-231 cells. Kind of assay: Real-time quantitative PCR of PTX3-induced genes. It is filed as cell-based, human. The conditions noted are these: MDA-MB-231 cells, with PTX3 treatment. An excerpt:
TRIsure RNA extraction reagent (Invitrogen) extracted total RNA. SuperScript™ III Reverse Transcriptase (Invitrogen) was used to synthesis cDNA. Next, SensiFAST™ SYBR (BIOLINE) was applied to perform real‐time quantitative PCR (Q‐PCR) assay. CFX connect Real‐Time PCR System (BIO‐RAD) executed real‐time fluorescence monitoring and the melting curve analysis according to the manufacturer's recommendations. The following pairs of specific primers—human CEBPD (F): 5′‐[…]‐3′ and CEBPD (R): 5′‐[…]‐3′, human PTX3 (F): 5′‐ […]‐3′ and PTX3 (R): 5′‐ […]‐3′, human MMP2 (F): 5′‐ […]‐3′ and MMP2 (R): 5′‐ […]‐3′, human RANKL (F): 5′‐ AGAGC GCAGATGGATCCTAA‐3′ and RANKL (R): 5′‐ TTCCTTTTGCACAGC TCCTT‐3′, human TWIST2 (F): 5′‐[…]‐3′ and TWIST2 (R): 5′‐[…]‐3′, human NANOG (F): 5′‐[…]‐3′ and NANOG (R): 5′‐ […]‐3′, human GAPDH (F): 5′‐ […]‐3′ and GAPDH (R): 5′‐ […]‐3′.

Ends that are not written are not given here.

Consider “RI37: peptide, PTX3 amino acids 200–236 (RPMRLESFSACIWVKATDVLNKTILFSYGTKRNPYEI; also: biotin, position not given here)”, for which the “PTX3-induced migration and invasion” value in the assay with MDA-MB-231 cells was “suppressed”. Further, the “PTX3-induced transcription of RANKL, MMP2, NANOG and TWIST2” value in assay [1] was “suppressed”.
As for “GI40: peptide, PTX3 amino acids 320–359 (GGGFDETLAFSGRLTGFNIWDSVLSNEEIRETGGAESCHI; also: biotin, position not given here)”, in the assay with MDA-MB-231 cells, the “PTX3-induced migration and invasion” value was “suppressed”. Besides, in assay [1], the “PTX3-induced transcription of RANKL, MMP2, NANOG and TWIST2” value is on record as “suppressed”.
